Test: Safety: adverse events (NCI-CTCAE v4.0), DLT, MTD, RP2D
Type: in vivo
Procedure: AEs were assessed using the National Cancer Institute-Common Terminology Criteria for Adverse Events (NCI-CTCAE v4.0). […] The protocol-defined GDC-0810-specific AEs of special interest (AESI) which were non-serious adverse events that required expedited reporting to the sponsor, included DLTs occurring during the DLT assessment window, grade ≥ 2 vomiting/diarrhea, grade ≥ 3 nausea, grade ≥ 2 thromboembolic events, grade ≥ 2 vaginal or uterine hemorrhage, and grade ≥ 3 elevation of ALT or AST.
Analyses of safety, pharmacokinetics, anti-tumor activity, and data from the FES-PET imaging correlative studies were planned. Confirmatory inferential analyses and imputation for missing data were not planned due to the exploratory nature of this study. Descriptive statistics were used to summarize patient data. The number of patients to be enrolled was dependent upon the observed safety and pharmacokinetic profile during dose escalations. The safety- and efficacy-evaluable population included patients who received at least one dose of the study drug. Safety was assessed through summaries of DLTs, AEs, changes in select laboratory test results, vital signs, ECGs, and changes in endometrial thickness. Objective response (with confirmation) and clinical benefit rates (CBR) were derived per RECIST v1.1 and summarized by dose level and cohort. […]
polyps, endometrial cancer, endometrial hyperplasia, and other significant disorders); any […]
disease or chronic diarrhea, short bowel syndrome, or upper gastrointestinal surgery; known human immunodeficiency virus (HIV) infection; known clinically significant history of liver disease; major surgery within 4 weeks prior to enrollment; or radiation therapy within 2 weeks […]
There were phase-specific exclusion criteria as well. In phase Ib, cohort C1 excluded patients with a history of venous thromboembolic event requiring therapeutic anticoagulation or vaginal bleeding within 2 months prior to enrollment. In phase IIa, cohorts A1 and A2 excluded patients with >1 chemotherapy in the advanced/metastatic disease setting. In phase IIa, cohort B1 excluded patients with >1 prior AI in the advanced/metastatic disease setting or prior […]
In phase IIa, cohort B2 excluded patients with >1 prior AI or >1 prior chemotherapy in the advanced/metastatic disease setting.
Patients in phase Ia in dose escalation received oral doses of GDC-0810 during 28-day cycles given once daily (QD) or twice-daily (BID), with fasting and without fasting, and with a single dose given on day −7 leading into cycle 1. The starting dose in the first cohort was 100 mg per day based on preclinical studies. Dose escalation to 200 mg and by 200 mg increments in successive cohorts occurred in the absence of dose-limiting toxicities (DLTs), or conditionally in the presence of DLTs. A DLT was defined as any adverse event (AE) occurring during the DLT window deemed by the investigator or sponsor to be related to the study drug unless they were clearly related to disease progression or other cause; DLT incidences were evaluated from day […]
patients in a dose cohort experienced a DLT, 3 additional patients were assigned to that dose; dose escalation to the next level proceeded if DLTs were experienced by ≤1 patient out of 6. If ≥2 patients experienced DLTs at a given dose, a lower dose was to be declared the maximum […]
Phase Ib was a dose-escalation study of GDC-0810 starting at 400 mg QD, as […]
Phase IIa explored the recommended phase 2 dose (RP2D) from phase Ia. All patients received GDC-0810 600 mg under non-fasting conditions. Cohorts A1 and A2 enrolled patients with tumors harboring ESR1 mutations with no prior fulvestrant use in cohort A1 while prior fulvestrant use was allowed in cohort A2. Cohorts B1 and B2 enrolled patients whose disease had progressed and who may have had one or no AI therapy; there was no prior fulvestrant use in cohort B1 while prior fulvestrant use was allowed in cohort B2.
Patients in all three study phases continued treatment until unacceptable toxicity, disease

[1] = phase IIa B2, 600 mg QD, n = 19
[2] = phase Ia cohorts 1–9, 100–800-mg BID, 300–400-mg QD, n = 41
[3] = phase Ib C1, 400 mg QD + palbociclib, n = 4
[4] = phase Ib D1, ≤ 600 mg QD + LHRH agonist, n = 6
[5] = phase Ib and IIa (n=111), grade 2, cohort B1
[6] = phase Ib and IIa (n=111), grade 2, cohort D1
[7] = phase Ib and IIa (n=111), grade 3, cohort A1
[8] = phase Ib and IIa (n=111), grade 3, cohort B1
[9] = phase Ib and IIa (n=111), grade 5, cohort B1
[10] = phase Ib combination treatments

With CC/C(=C(/c1ccc(/C=C/C(=O)O)cc1)c1ccc2[nH]ncc2c1)c1ccc(F)cc1Cl [GDC-0810] the “Constipation, Grades 3–5” value [1] was 0 n (%), the “Constipation, all grades” value [1] was 4 (21) n (%) and the “Cough, Grades 3–5” value [1] was 0 n (%). The “Cough, all grades” value [1] was 4 (21) n (%), the “Decreased appetite, Grades 3–5” value [1] was 0 n (%) and the “Decreased appetite, all grades” value [1] was 2 (11) n (%). The “Diarrhea, Grades 3–5” value [1] was 0 n (%), the “Diarrhea, all grades” value [1] was 11 (58) n (%) and the “Dyspepsia, Grades 3–5” value [1] was 0 n (%). The “Dyspepsia, all grades” value [1] was 2 (11) n (%), the “Fatigue, Grades 3–5” value [1] was 0 n (%) and the “Fatigue, all grades” value [1] was 7 (37) n (%). The “Flatulence, Grades 3–5” value [1] was 0 n (%), the “Flatulence, all grades” value [1] was 0 n (%) and the “Nausea, Grades 3–5” value [1] was 0 n (%). The “Nausea, all grades” value [1] was 9 (47) n (%), the “Vomiting, Grades 3–5” value [1] was 0 n (%) and the “Vomiting, all grades” value [1] was 2 (11) n (%). The “AEs leading to dose interruption” value (phase IIa expansion cohorts) was 32 (32%) n (%), the “AEs leading to dose reduction” value (phase IIa expansion cohorts) was 4 (4%) n (%) and the “AEs leading to study drug withdrawal” value (phase IIa expansion cohorts) was 3 (3%) n (%). For the same compound, the “MTD (maximum tolerated dose)” value (phase Ia) was “not reached”, the “time to onset for any grade diarrhea, range” value (phase Ia) was 1 to 176 days and the “AST increased, Grades 3–5” value [2] was 2 (5) n (%). The “AST increased, all grades” value [2] was 17 (42) n (%), the “Abdominal pain, Grades 3–5” value [2] was 1 (2) n (%) and the “Abdominal pain, all grades” value [2] was 12 (29) n (%). The “Anemia, Grades 3–5” value [2] was 1 (2) n (%), the “Anemia, all grades” value [2] was 18 (44) n (%) and the “Arthralgia, Grades 3–5” value [2] was 0 n (%). For the same compound, the “Arthralgia, all grades” value [2] was 12 (29) n (%), the “Constipation, Grades 3–5” value [2] was 0 n (%) and the “Constipation, all grades” value [2] was 17 (42) n (%). For the same compound, the “Cough, Grades 3–5” value [2] was 0 n (%), the “Cough, all grades” value [2] was 13 (32) n (%) and the “Decreased appetite, Grades 3–5” value [2] was 0 n (%). The “Decreased appetite, all grades” value [2] was 13 (32) n (%), the “Diarrhea, Grades 3–5” value [2] was 0 n (%) and the “Diarrhea, all grades” value [2] was 32 (78) n (%). The “Dyspepsia, Grades 3–5” value [2] was 0 n (%), the “Dyspepsia, all grades” value [2] was 11 (27) n (%) and the “Fatigue, Grades 3–5” value [2] was 3 (7) n (%). For the same compound, the “Fatigue, all grades” value [2] was 28 (68) n (%), the “Flatulence, Grades 3–5” value [2] was 0 n (%) and the “Flatulence, all grades” value [2] was 11 (27) n (%). For the same compound, the “Nausea, Grades 3–5” value [2] was 1 (2) n (%), the “Nausea, all grades” value [2] was 28 (68) n (%) and the “Vomiting, Grades 3–5” value [2] was 1 (2) n (%). For the same compound, the “Vomiting, all grades” value [2] was 16 (39) n (%), the “AEs leading to dose interruption” value (phase Ia dose escalation) was 18 (44%) n (%) and the “AEs leading to dose reduction” value (phase Ia dose escalation) was 5 (12%) n (%). For the same compound, the “patients with ≥ 1 AE considered related to GDC-0810” value (phase Ia dose escalation) was 40 (98%) n (%), the “mean time to onset for any grade diarrhea” value (phase Ia dose-escalation cohorts) was 29 days and the “SAEs considered related to the study drug” value (phase Ia, grade 4 pulmonary embolism) was “one of the 20”. The “patients with grade ≥3 AEs related to GDC-0810” value (phase Ia, grade 4 pulmonary embolism and two grade 3 diarrhea) was 3 (7%) n (%), the deaths (phase Ib) was “no deaths” and the “AST increased, Grades 3–5” value [3] was 0 n (%). For the same compound, the “AST increased, all grades” value [3] was 1 (25) n (%), the “Abdominal pain, Grades 3–5” value [3] was 0 n (%) and the “Abdominal pain, all grades” value [3] was 0 n (%). For the same compound, the “Anemia, Grades 3–5” value [3] was 0 n (%), the “Anemia, all grades” value [3] was 2 (50) n (%) and the “Arthralgia, Grades 3–5” value [3] was 0 n (%). For the same compound, the “Arthralgia, all grades” value [3] was 1 (25) n (%), the “Constipation, Grades 3–5” value [3] was 0 n (%) and the “Constipation, all grades” value [3] was 0 n (%). For the same compound, the “Cough, Grades 3–5” value [3] was 0 n (%), the “Cough, all grades” value [3] was 1 (25) n (%) and the “Decreased appetite, Grades 3–5” value [3] was 0 n (%). For the same compound, the “Decreased appetite, all grades” value [3] was 1 (25) n (%), the “Diarrhea, Grades 3–5” value [3] was 0 n (%) and the “Diarrhea, all grades” value [3] was 2 (50) n (%). The “Dyspepsia, Grades 3–5” value [3] was 0 n (%), the “Dyspepsia, all grades” value [3] was 0 n (%) and the “Fatigue, Grades 3–5” value [3] was 1 (25) n (%). The “Fatigue, all grades” value [3] was 2 (50) n (%), the “Flatulence, Grades 3–5” value [3] was 0 n (%) and the “Flatulence, all grades” value [3] was 0 n (%). The “Nausea, Grades 3–5” value [3] was 0 n (%), the “Nausea, all grades” value [3] was 3 (75) n (%) and the “Vomiting, Grades 3–5” value [3] was 0 n (%). For the same compound, the “Vomiting, all grades” value [3] was 0 n (%), the “AST increased, Grades 3–5” value [4] was 0 n (%) and the “AST increased, all grades” value [4] was 0 n (%). For the same compound, the “Abdominal pain, Grades 3–5” value [4] was 0 n (%), the “Abdominal pain, all grades” value [4] was 2 (33) n (%) and the “Anemia, Grades 3–5” value [4] was 0 n (%). The “Anemia, all grades” value [4] was 0 n (%), the “Arthralgia, Grades 3–5” value [4] was 0 n (%) and the “Arthralgia, all grades” value [4] was 1 (17) n (%). For the same compound, the “Constipation, Grades 3–5” value [4] was 0 n (%), the “Constipation, all grades” value [4] was 3 (50) n (%) and the “Cough, Grades 3–5” value [4] was 0 n (%). For the same compound, the “Cough, all grades” value [4] was 1 (17) n (%), the “Decreased appetite, Grades 3–5” value [4] was 0 n (%) and the “Decreased appetite, all grades” value [4] was 4 (67) n (%). For the same compound, the “Diarrhea, Grades 3–5” value [4] was 1 (17) n (%), the “Diarrhea, all grades” value [4] was 6 (100) n (%) and the “Dyspepsia, Grades 3–5” value [4] was 0 n (%). For the same compound, the “Dyspepsia, all grades” value [4] was 3 (50) n (%), the “Fatigue, Grades 3–5” value [4] was 0 n (%) and the “Fatigue, all grades” value [4] was 3 (50) n (%). For the same compound, the “Flatulence, Grades 3–5” value [4] was 0 n (%), the “Flatulence, all grades” value [4] was 1 (17) n (%) and the “Nausea, Grades 3–5” value [4] was 0 n (%). The “Nausea, all grades” value [4] was 4 (67) n (%), the “Vomiting, Grades 3–5” value [4] was 0 n (%) and the “Vomiting, all grades” value [4] was 3 (50) n (%). For the same compound, the “SAE Urinary tract infection” value (phase Ib and IIa (n=111), grade 1, cohort A1) was 1 n, the “SAE Hepatic hemorrhage” value (phase Ib and IIa (n=111), grade 2, cohort A1) was 1 n and the “SAE Deep vein thrombosis” value [5] was 1 n. The “SAE Pneumonia” value [5] was 1 n, the “SAE Pleural effusion” value (phase Ib and IIa (n=111), grade 2, cohort C1) was 1 n and the “SAE Abdominal pain” value [6] was 1 n. The “SAE Appendicitis perforated” value [6] was 1 n, the “SAE Pain in extremity” value [6] was 1 n and the “SAE Ascites” value [7] was 1 n. For the same compound, the “SAE Hypertension” value [7] was 1 n, the “SAE Vomiting” value (phase Ib and IIa (n=111), grade 3, cohort A1 (both)) was 2 n and the “SAE Cardiac failure” value [8] was 1 n. For the same compound, the “SAE Diarrhea” value [8] was 1 n, the “SAE Dyspnea” value [8] was 1 n and the “SAE Endometrial hyperplasia” value [8] was 1 n. For the same compound, the “SAE Headache” value [8] was 1 n, the “SAE Hip fracture” value [8] was 1 n and the “SAE Hydronephrosis” value [8] was 1 n. The “SAE Seizure” value [8] was 1 n, the “SAE Syncope” value [8] was 1 n and the “SAE Tumor pain” value [8] was 1 n. The “SAE Atrial fibrillation” value (phase Ib and IIa (n=111), grade 3, cohort C1) was 1 n, the “SAE Pneumonia” value (phase Ib and IIa (n=111), grade 3, cohorts A2, B1) was 2 n and the “SAE Pulmonary embolism” value (phase Ib and IIa (n=111), grade 3, cohorts B1, D1) was 2 n. The “SAE Hyponatremia” value (phase Ib and IIa (n=111), grade 4, cohort B1) was 1 n, the “SAE Sepsis” value (phase Ib and IIa (n=111), grade 4, cohorts B1, B2) was 2 n and the “SAE Acute kidney injury” value [9] was 1 n. The “SAE Breast cancer” value [9] was 2 n, the “AEs leading to dose interruption” value [10] was 5 (50%) n (%) and the “AEs leading to dose reduction” value [10] was “none”. For the same compound, the “AEs leading to study drug withdrawal” value [10] was “none”, the “vomiting, most common AEs” value (phases Ib/IIa) was 31,28% and the “RP2D (recommended phase 2 dose)” value (taken with food / non-fasted) was 600 mg QD.

— paper PMC9823088, “The oral selective estrogen receptor degrader GDC-0810 (ARN-810) in postmenopausal women with hormone receptor-positive HER2-negative (HR + /HER2 −) advanced/metastatic breast cancer” (Breast Cancer Research and Treatment, 2022)
